Test: phase I pharmacokinetic study of tenatoprazole, oral single dose and daily dose for 7 days
Assay type: in vivo, Caucasian individuals
Protocol: The doses tested were 10, 20, 40 and 80 mg of tenatoprazole.

In the case of COc1ccc2[nH]c([S+]([O-])Cc3ncc(C)c(OC)c3C)nc2n1 (stereo not drawn) [tenatoprazole, 5-methoxy-2-[[(4-methoxy-3,5-dimethyl-2-pyridyl)methyl]sulfinyl]imidazo[4,5-b]pyridine], the half-life at 7 days (human, plasma, after administration for seven days, depending on the dose (10-80 mg), read-out: mean elimination half-lives) is reported as 300 to 552 min, the T½ elimination half-life (repeated dose (7 days), 40 mg) is reported as 9 h and the T½ elimination half-life (single dose, 80 mg) is reported as 7 h.

From patent US20120122919A1, “PHARMACEUTICAL COMPOSITION COMBINING TENATOPRAZOLE AND A HISTAMINE H2-RECEPTOR ANTAGONIST” (priority 2002, published 2012)
